For 24 compounds, IC50 results are on record in US9096595B2, “7-(heteroaryl-amino)-6,7,8,9-tetrahydropyrido[1,2-a]indol acetic acid derivatives and their use as prostaglandin D2 receptor modulators” (Actelion Pharmaceuticals Ltd, priority 2011, dated 2015).

The structures appear in SMILES notation.

Assay [1] concerns the target T1, hCRTH2 receptor (Homo sapiens (Human), UniProt Q9Y5Y4). Put plainly: hCRTH2 receptor membranes radioligand (3H-PGD2) displacement assay. Conditions: 3H-PGD2 2.5 nM, HEK293-hCRTH2 membrane fragments, Binding-Buffer with 0.1% BSA. Here is the method: (§1) First, recombinant HEK293-hCRTH2 cells were detached from culture plates into 5 ml buffer A/plate (Buffer A: 5 mM Tris, 1 mM MgCl2-6H2O pH=7.4) using a rubber policeman. Cells were then transferred into centrifugation tubes and centrifuged for 5 min at 400 g. The cell pellet was resuspended in the same buffer and tubes were frozen at −80° C. Cells were thawed and membrane fragments were generated by homogenization using a polytron homogenizer (30 seconds). The membrane fragments were then centrifuged at 3000 g for 20 minutes and resuspended in buffer C (Buffer C: 75 mM Tris, 25 mM MgCl2, 250 mM Saccharose pH 7.4). Aliquots of membrane fragments were stored at −20° C.
(§2) Binding assay was performed in a final assay volume of 250 μl. First, 25 μl of test compound, previously diluted in Binding-Buffer (Binding-Buffer: 50 mM Tris-Base, 100 mM NaCl, 1 mM EDTA, 0.1% BSA (protease free), 0.01% NaN3, 10 mM MnCl2 pH 7.0) was placed into each well. After addition of 75 μl Binding-Buffer, 50 μl of the radioligand ^3H-PGD2 (at 2.5 nM (220.000 dpm/well) from ANAWA ART0662) was added to each well. Binding assay was started by addition of 100 μl CRTH2 membrane fragments, reaching a final concentration of 20 μg/well. For non-specific binding, PGD2 was added to the reaction mixture to […] final concentration. This assay mix was incubated for 90 minutes at room temperature and then filtered through a GF/C filter 96-well plate which was pre-soaked for 3 hours in 0.5% polyethyleneimine (PEI). The filter-wells were washed three times with ice cold Binding-Buffer. Then, 40 μl of Microscint-40 (Packard) was added to each well and the retained radioactivity quantified in a Topcount (Packard).

In assay [2] the target is T1, hCRTH2 receptor. The assay is described as follows: Radioligand displacement assay in presence of human serum albumin (HSA). Conditions: 3H-PGD2 2.5 nM, HEK293-hCRTH2 membrane fragments, Binding-Buffer-HSA with 0.5% human serum albumin instead of 0.1% BSA. As to the method:
as §1, §2
Radioligand displacement assay in presence of human serum albumin (HSA) was performed as described above, with following modifications. Binding-Buffer-HSA: Binding-buffer+0.5% Sigma Albumin from Human serum A1887 (instead of 0.1% BSA). A volume of 25 μl test compound, previously diluted in Binding-Buffer-HSA was placed into each well. After addition of 75 μl Binding-Buffer-HSA, 50 μl of ^3H-PGD2 (at 2.5 nM (220.000 dpm/well) from ANAWA ART0662) was added to each well. Remaining protocol was identical as described above.
Background: Loss of bound radioactivity is the signal in a displacement assay; it reports binding, not function.

T1 sequence (Q9Y5Y4 whole entry, the tested form may be a part): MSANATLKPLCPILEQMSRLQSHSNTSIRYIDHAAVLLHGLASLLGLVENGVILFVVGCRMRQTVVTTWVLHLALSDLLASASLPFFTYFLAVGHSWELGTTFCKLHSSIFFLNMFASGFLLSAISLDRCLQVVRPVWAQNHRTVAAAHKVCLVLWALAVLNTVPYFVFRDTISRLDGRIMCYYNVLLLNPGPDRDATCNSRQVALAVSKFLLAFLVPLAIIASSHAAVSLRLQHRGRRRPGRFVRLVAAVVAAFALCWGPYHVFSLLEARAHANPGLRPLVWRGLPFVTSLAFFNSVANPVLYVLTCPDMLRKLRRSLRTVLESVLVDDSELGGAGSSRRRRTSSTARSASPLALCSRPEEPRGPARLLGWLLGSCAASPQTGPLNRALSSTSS

What is called IC50 is the concentration that gives 50% inhibition. With `CN(c1ncc(C(F)(F)F)cn1)C1CCc2c(CC(=O)O)c3ccc(F)cc3n2C1` (stereo not drawn) [Example 18, 2-(3-fluoro-7-(methyl(5-(trifluoromethyl)pyrimidin-2-yl)amino)-6,7,8,9-tetrahydropyrido[1,2-a]indol-10-yl)acetic acid], the values for the concentration for half-maximal inhibition (IC50) on hCRTH2 receptor [1] and on hCRTH2 receptor [2] were 6 nM and 71 nM, respectively.

Consider `CN(c1nc2ccc(F)cc2o1)C1CCc2c(CC(=O)O)c3ccc(F)cc3n2C1` (stereo not drawn) [Example 20, 2-(3-fluoro-7-((6-fluorobenzo[d]oxazol-2-yl)(methyl)amino)-6,7,8,9-tetrahydropyrido[1,2-a]indol-10-yl)acetic acid], for which the IC50 on hCRTH2 receptor [1] came out at 1 nM; at hCRTH2 receptor [2] it was 20 nM.

`CN(c1ncc(Cl)cn1)C1CCc2c(CC(=O)O)c3ccc(Cl)cc3n2C1` (stereo not drawn) [Example 21, 2-(3-chloro-7-((5-chloropyrimidin-2-yl)(methyl)amino)-6,7,8,9-tetrahydropyrido[1,2-a]indol-10-yl)acetic acid]: the IC50 amounted to 7 nM on hCRTH2 receptor [1] and 31 nM at hCRTH2 receptor [2].

As for `CN(c1ncc(Cl)cn1)C1CCc2c(CC(=O)O)c3ccc(C(F)(F)F)cc3n2C1` (stereo not drawn) [Example 22, 2-(7-((5-chloropyrimidin-2-yl)(methyl)amino)-3-(trifluoromethyl)-6,7,8,9-tetrahydropyrido[1,2-a]indol-10-yl)acetic acid], the IC50 at hCRTH2 receptor [1] turned out to be 9 nM; on hCRTH2 receptor [2], 38 nM.

Turning to `CN(c1ncc(F)cn1)C1CCc2c(CC(=O)O)c3ccc(C(F)(F)F)cc3n2C1` (stereo not drawn) [Example 24, 2-(7-((5-fluoropyrimidin-2-yl)(methyl)amino)-3-(trifluoromethyl)-6,7,8,9-tetrahydropyrido[1,2-a]indol-10-yl)acetic acid], the values for the IC50 at hCRTH2 receptor [1] and on hCRTH2 receptor [2] were 5 nM and 11 nM, respectively.

As for `CN(c1nc2ccc(F)cc2s1)C1CCc2c(CC(=O)O)c3ccc(C(F)(F)F)cc3n2C1` (stereo not drawn) [Example 26, 2-(7-((6-fluorobenzo[d]thiazol-2-yl)(methyl)amino)-3-(trifluoromethyl)-6,7,8,9-tetrahydropyrido[1,2-a]indol-10-yl)acetic acid], the half-inhibitory concentration (IC50) on hCRTH2 receptor [1] stood at 16 nM; on hCRTH2 receptor [2], 15 nM.

As to `CN(c1nc2cc(F)ccc2o1)C1CCc2c(CC(=O)O)c3ccc(C(F)(F)F)cc3n2C1` (stereo not drawn) [Example 28, 2-(7-((5-fluorobenzo[d]oxazol-2-yl)(methyl)amino)-3-(trifluoromethyl)-6,7,8,9-tetrahydropyrido[1,2-a]indol-10-yl)acetic acid], the IC50 on hCRTH2 receptor [1] was 8 nM; on hCRTH2 receptor [2], 20 nM.

Turning to `CN(c1nc2cc(F)ccc2o1)C1CCc2c(CC(=O)O)c3ccc(Cl)cc3n2C1` (stereo not drawn) [Example 31, 2-(3-chloro-7-((5-fluorobenzo[d]oxazol-2-yl)(methyl)amino)-6,7,8,9-tetrahydropyrido[1,2-a]indol-10-yl)acetic acid], the IC50 was 5 nM at hCRTH2 receptor [1] and 13 nM on hCRTH2 receptor [2].

Take `O=C(O)Cc1c2n(c3cc(F)ccc13)CC(Nc1ncc(F)cn1)CC2` (stereo not drawn) [Example 34, 2-(3-fluoro-7-((5-fluoropyrimidin-2-yl)amino)-6,7,8,9-tetrahydropyrido[1,2-a]indol-10-yl)acetic acid]: the concentration for half-maximal inhibition (IC50) was 9 nM on hCRTH2 receptor [1] and 304 nM at hCRTH2 receptor [2].

For `O=C(O)Cc1c2n(c3cc(F)ccc13)CC(Nc1nc3cc(F)ccc3o1)CC2` (stereo not drawn) [Example 35, 2-(3-fluoro-7-((5-fluorobenzo[d]oxazol-2-yl)amino)-6,7,8,9-tetrahydropyrido[1,2-a]indol-10-yl)acetic acid], the concentration for half-maximal inhibition (IC50) was determined as 11 nM at hCRTH2 receptor [1] and 20 nM at hCRTH2 receptor [2].

Regarding `O=C(O)Cc1c2n(c3cc(Cl)ccc13)CC(Nc1ncc(F)cn1)CC2` (stereo not drawn) [Example 36, 2-(3-chloro-7-((5-fluoropyrimidin-2-yl)amino)-6,7,8,9-tetrahydropyrido[1,2-a]indol-10-yl)acetic acid], the IC50 on hCRTH2 receptor [1] amounted to 65 nM; on hCRTH2 receptor [2] it was 465 nM.

In the case of `O=C(O)Cc1c2n(c3cc(Cl)ccc13)CC(Nc1ncc(Cl)cn1)CC2` (stereo not drawn) [Example 37, 2-(3-chloro-7-((5-chloropyrimidin-2-yl)amino)-6,7,8,9-tetrahydropyrido[1,2-a]indol-10-yl)acetic acid], the IC50 stood at 27 nM on hCRTH2 receptor [1] and 385 nM at hCRTH2 receptor [2].

Consider `Cc1cnc(N(C)C2CCc3c(CC(=O)O)c4ccc(Cl)cc4n3C2)nc1` (stereo not drawn) [Example 38, 2-(3-chloro-7-(methyl(5-methylpyrimidin-2-yl)amino)-6,7,8,9-tetrahydropyrido[1,2-a]indol-10-yl)acetic acid], for which the values for the 50% inhibitory concentration (IC50) at hCRTH2 receptor [1] and on hCRTH2 receptor [2] were 2 nM and 246 nM, respectively.

As for `CN(c1ncc2ccccc2n1)C1CCc2c(CC(=O)O)c3ccc(Cl)cc3n2C1` (stereo not drawn) [Example 39, 2-(3-chloro-7-(methyl(quinazolin-2-yl)amino)-6,7,8,9-tetrahydropyrido[1,2-a]indol-10-yl)acetic acid], the IC50 on hCRTH2 receptor [1] came to 3 nM; at hCRTH2 receptor [2] it was 5 nM.

As for `CN(c1ncc2cc(F)ccc2n1)C1CCc2c(CC(=O)O)c3ccc(Cl)cc3n2C1` (stereo not drawn) [Example 40, 2-(3-chloro-7-((6-fluoroquinazolin-2-yl)(methyl)amino)-6,7,8,9-tetrahydropyrido[1,2-a]indol-10-yl)acetic acid], the half-maximal inhibitory concentration (IC50) on hCRTH2 receptor [1] was 5 nM; at hCRTH2 receptor [2] it was 4 nM.

`CN(c1ncc2ccc(F)cc2n1)C1CCc2c(CC(=O)O)c3ccc(Cl)cc3n2C1` (stereo not drawn) [Example 41, 2-(3-chloro-7-((7-fluoroquinazolin-2-yl)(methyl)amino)-6,7,8,9-tetrahydropyrido[1,2-a]indol-10-yl)acetic acid]: the IC50 was 1 nM on hCRTH2 receptor [1] and 37 nM at hCRTH2 receptor [2].

For `CN(c1cnc2cc(F)ccc2n1)C1CCc2c(CC(=O)O)c3ccc(Cl)cc3n2C1` (stereo not drawn) [Example 43, 2-(3-chloro-7-((6-fluoroquinoxalin-2-yl)(methyl)amino)-6,7,8,9-tetrahydropyrido[1,2-a]indol-10-yl)acetic acid], the IC50 turned out to be 2 nM at hCRTH2 receptor [1] and 12 nM on hCRTH2 receptor [2].

With `O=C(O)Cc1c2n(c3cc(Cl)ccc13)CC(N(CC(F)F)c1nc3cc(F)ccc3o1)CC2` (stereo not drawn) [Example 44, 2-(3-chloro-7-((2,2-difluoroethyl)(5-fluorobenzo[d]oxazol-2-yl)amino)-6,7,8,9-tetrahydropyrido[1,2-a]indol-10-yl)acetic acid], the 50% inhibitory concentration (IC50) worked out at 3 nM on hCRTH2 receptor [1] and 6 nM at hCRTH2 receptor [2].

`CCN(c1ncc(F)cn1)C1CCc2c(CC(=O)O)c3ccc(Cl)cc3n2C1` (stereo not drawn) [Example 45, 2-(3-chloro-7-(ethyl(5-fluoropyrimidin-2-yl)amino)-6,7,8,9-tetrahydropyrido[1,2-a]indol-10-yl)acetic acid]: the IC50 was determined as 1 nM on hCRTH2 receptor [1] and 3 nM at hCRTH2 receptor [2].

On to `CC(C)N(c1nc2cc(F)ccc2o1)C1CCc2c(CC(=O)O)c3ccc(Cl)cc3n2C1` (stereo not drawn) [Example 46, 2-(3-chloro-7-((5-fluorobenzo[d]oxazol-2-yl)(isopropyl)amino)-6,7,8,9-tetrahydropyrido[1,2-a]indol-10-yl)acetic acid], for which the IC50 came out at 3 nM on hCRTH2 receptor [1] and 5 nM on hCRTH2 receptor [2].

In the case of `COCCN(c1ncc(F)cn1)C1CCc2c(CC(=O)O)c3ccc(Cl)cc3n2C1` (stereo not drawn) [Example 47, 2-(3-chloro-7-((5-fluoropyrimidin-2-yl)(2-methoxyethyl)amino)-6,7,8,9-tetrahydropyrido[1,2-a]indol-10-yl)acetic acid], the concentration for half-maximal inhibition (IC50) at hCRTH2 receptor [1] worked out at 0.8 nM; on hCRTH2 receptor [2], 69 nM.

As for `CC(C)CN(c1nc2cc(F)ccc2o1)C1CCc2c(CC(=O)O)c3ccc(Cl)cc3n2C1` (stereo not drawn) [Example 48, 2-(3-chloro-7-((5-fluorobenzo[d]oxazol-2-yl)(isobutyl)amino)-6,7,8,9-tetrahydropyrido[1,2-a]indol-10-yl)acetic acid], the IC50 is 2 nM on hCRTH2 receptor [1] and 6 nM at hCRTH2 receptor [2].

`CCCN(c1ncc(F)cn1)C1CCc2c(CC(=O)O)c3ccc(Cl)cc3n2C1` (stereo not drawn) [Example 49, 2-(3-chloro-7-((5-fluoropyrimidin-2-yl)(propyl)amino)-6,7,8,9-tetrahydropyrido[1,2-a]indol-10-yl)acetic acid]: the IC50 turned out to be 1 nM at hCRTH2 receptor [1] and 21 nM at hCRTH2 receptor [2].

Turning to `CCN(c1nc2cc(F)ccc2o1)C1CCc2c(CC(=O)O)c3ccc(Cl)cc3n2C1` (stereo not drawn) [Example 50, 2-(3-chloro-7-(ethyl(5-fluorobenzo[d]oxazol-2-yl)amino)-6,7,8,9-tetrahydropyrido[1,2-a]indol-10-yl)acetic acid], the IC50 is 1 nM at hCRTH2 receptor [1] and 9 nM at hCRTH2 receptor [2].
